In experiment [1] the target is T1, EcaGST A3-3 (Equus caballus, UniProt M9ZT87). The experiment in a line: Inhibition of EcaGST A3-3 activity, GSH conjugation with CDNB. The experiment is classed as biochemical, Equus ferus caballus. The method, then: The final solvent concentration in the reaction system was kept at 5% (v/v) as a maximum.
(§1) The conjugation of GSH with the electrophilic substrate CDNB was used as a biochemical assay for general activity measurements. Screening of the US Drug library for inhibition was done in triplicates in 96-well plates in a Thermo Scientific Multiskan GO spectrophotometer. The conjugation activity at 30°C was monitored at 340 nm for 1 min in 0.1 M sodium phosphate buffer at pH 6.5 and 10 μM inhibitor concentration in a final volume of 300 μL. Initial concentrations of GSH and CDNB were 1 mM.
Assay conditions for inhibition measurements of enzyme activity with CDNB were the following: EcaGST A3-3 15 nM, initial concentrations of GSH and CDNB 1 mM, inhibitor concentrations varying from 0.029 μM to 15 μM, in 100 mM Na2HPO4/NaH2PO4 at pH 6.5.
The reactions were followed spectrophotometrically for 1 min at 30°C using a Shimadzu UV-2501 PC spectrophotometer (Shimadzu Inc.). All experiments included triplicate measurements in each data point.
The equation for competitive inhibition fitted by non-linear regression was v=Vmax[S]/KM(1+[I]/Ki)+[S] where [S] is the substrate concentrations and [I] is the inhibitor concentration.

The target in experiment [2] is T1, EcaGST A3-3. In words: Inhibition of EcaGST A3-3 steroid double-bond isomerase activity with Δ^5-AD. The experiment is classed as biochemical, Equus ferus caballus.
The target in experiment [3] is T2, HsaGST A3-3 (Homo sapiens, UniProt Q16772).
T2 construct: made in house
T2 sequence (Q16772 1-222): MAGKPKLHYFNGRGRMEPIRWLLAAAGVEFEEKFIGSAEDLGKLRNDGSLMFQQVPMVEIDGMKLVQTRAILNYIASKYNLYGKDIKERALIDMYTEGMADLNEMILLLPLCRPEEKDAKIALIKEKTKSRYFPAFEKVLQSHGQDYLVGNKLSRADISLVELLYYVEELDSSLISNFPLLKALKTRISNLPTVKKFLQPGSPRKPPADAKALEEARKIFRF
The experiment in a line: Inhibition of HsaGST A3-3 CDNB activity. The experiment is classed as biochemical. Particulars: for Inhibition (%) of HsaGST A3-3: 10 μM inhibitor; for IC50: CDNB activity. The method, then: (§2) EcaGST A3-3 [10], HsaGST A3-3 [12] and HsaGST M2-2 [13] were cloned, expressed and purified as described previously. Protein concentration was determined by means of the Bradford assay.
as §1
(§3) For understanding the effects of pharmacological interventions based on GST inhibitors, it is important to know the selectivity among the numerous GSTs. […] All values were determined with CDNB, which is a common substrate for all the enzymes.

The next experiment concerns the target T3, HsaGST M2-2 (Homo sapiens, UniProt P28161).
T3 construct: made in house
T3 sequence (P28161 1-218): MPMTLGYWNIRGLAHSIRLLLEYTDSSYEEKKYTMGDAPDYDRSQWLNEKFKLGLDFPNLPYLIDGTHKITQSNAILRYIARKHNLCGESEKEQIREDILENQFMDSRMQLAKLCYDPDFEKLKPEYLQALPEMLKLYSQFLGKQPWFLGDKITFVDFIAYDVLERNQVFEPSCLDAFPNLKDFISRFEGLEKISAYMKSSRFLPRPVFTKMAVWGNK
In words: Inhibition of HsaGST M2-2 CDNB activity. The experiment is classed as biochemical. The method, then: as §2, §1, §3

In experiment [4] the target is T2, HsaGST A3-3. Also on record: method as in PMID 23769903. To be noted: CDNB activity, 1 mM GSH, 1 mM CDNB, pH 6.5, 30°C; read-out: IC50 HsaGST A3-3 (published); cited from earlier work.
In another experiment the test system is HsaGST P1-1. Further details: method as in PMID 23769903. Particulars: 1 mM GSH, 1 mM CDNB, pH 6.5, 30°C, cited from earlier work; for Inhibition (%) of HsaGST P1-1: 3.3 μM inhibitor; for IC50: CDNB activity.
A further experiment relates to HsaGST S1-1. Further details: method as in PMID 25603235. To be noted: 1 mM GSH, 1 mM CDNB, pH 6.5, 30°C, cited from earlier work; for Inhibition (%) of HsaGST S1-1: 10 μM inhibitor; for IC50: CDNB activity.
Where [5] appears, read: 10 μM inhibitor, 1 mM GSH, 1 mM CDNB, sodium phosphate pH 6.5, 30°C.
Setting [6] is: 1 mM CDNB, 1 mM GSH, 100 mM sodium phosphate pH 6.5, 30°C, read-out: IC50 EcaGST A3-3, substrate CDNB.
The mark [7] stands for this setting: pH 6.5, 10 μM inhibitor, 1 mM GSH, 1 mM CDNB, pH 6.5, 30°C, read-out: Inhibition (%) of HsaGST A3-3.
Where [8] appears, read: 1 mM GSH, 1 mM CDNB, pH 6.5, 30°C.
Where [9] appears, read: 10 μM inhibitor, 1 mM GSH, 1 mM CDNB, pH 6.5, 30°C.
Where [10] appears, read: CDNB activity, 1 mM GSH, 1 mM CDNB, pH 6.5, 30°C, read-out: IC50 HsaGST M2-2.
Setting [11] is: 0.1 mM Δ^5-AD, 1 mM GSH, 25 mM sodium phosphate pH 8.0, 30°C.

Read-outs that look alike come from different tables or passages of the source. Some results are limits rather than exact numbers.

T1 sequence (M9ZT87 entry or part of it): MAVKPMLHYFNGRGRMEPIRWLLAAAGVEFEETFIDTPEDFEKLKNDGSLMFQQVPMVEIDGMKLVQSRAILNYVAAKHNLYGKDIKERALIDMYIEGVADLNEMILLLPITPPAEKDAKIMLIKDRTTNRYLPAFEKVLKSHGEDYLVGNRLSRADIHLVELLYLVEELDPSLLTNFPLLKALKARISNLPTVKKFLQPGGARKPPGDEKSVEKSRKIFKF

As to `Oc1c(Cl)cc(Cl)cc1Sc1cc(Cl)cc(Cl)c1O` [Bithionate sodium], at EcaGST A3-3 [1] (setting [5]), the “Inhibition (%) of EcaGST A3-3” value is given as 64 ± 22%. The IC50 (usually the point on the concentration scale where inhibition reaches its midpoint) was 1900 ± 520 nM on EcaGST A3-3 [1] (setting [6]), 1600 ± 310 nM against EcaGST A3-3 [2], 700 nM at HsaGST A3-3 [4] and 12000 nM in the experiment with HsaGST S1-1. The inhibition (in general, the change of the read-out against control, counted positive when it falls) at 10 µM at HsaGST A3-3 [3] (setting [7]) came to 47%; on HsaGST M2-2 (10 μM inhibitor, 1 mM GSH, 1 mM CDNB, pH 6.5, 30°C, read-out: Inhibition (%) of HsaGST M2-2), 73%. The “Inhibition (%) of HsaGST P1-1” value with HsaGST P1-1 is on record as 10%. In the experiment with HsaGST S1-1, the “Inhibition (%) of HsaGST S1-1” value was 47%.

Regarding `Oc1c(Cl)cc(Cl)c(Cl)c1Cc1c(O)c(Cl)cc(Cl)c1Cl` [Hexachlorophene], the IC50 against EcaGST A3-3 [1] is 320 ± 36 nM; against EcaGST A3-3 [2], 440 ± 220 nM; against HsaGST M2-2, 1500 nM; at HsaGST A3-3 [4], 160 nM; with HsaGST P1-1, 9700 nM; in the experiment with HsaGST S1-1, 8900 nM. For the same compound, the inhibition at 10 µM at EcaGST A3-3 [1] (pH 6.5, read-out: Inhibition (%) of EcaGST A3-3, 10 μM inhibitor, 1 mM GSH, 1 mM CDNB, sodium phosphate pH 6.5, 30°C) stood at 96 ± 1.1%; on HsaGST A3-3 [3] (pH 6.5, read-out: Inhibition (%) of HsaGST A3-3), 89%; on HsaGST M2-2 (pH 6.5, read-out: Inhibition (%) of HsaGST M2-2) it was 98%. Further, the “Inhibition (%) of HsaGST P1-1” value with HsaGST P1-1 is reported as 34%. Besides, in the experiment on HsaGST S1-1, the “Inhibition (%) of HsaGST S1-1” value is 61%.

For the compound `O=C([O-])c1ccccc1-c1c2cc(Br)c(=O)cc-2oc2[c]([Hg+])c([O-])c(Br)cc12.[Na+].[Na+].[OH-]` [Merbromin], the “Inhibition (%) of EcaGST A3-3” value on EcaGST A3-3 [1] (setting [5]) worked out at 95 ± 18%. Further, the IC50 at EcaGST A3-3 [1] (setting [6]) is 2600 ± 630 nM; at EcaGST A3-3 [2] (read-out: IC50 EcaGST A3-3, substrate Δ^5-AD, 0.1 mM Δ^5-AD, 1 mM GSH, 25 mM sodium phosphate pH 8.0, 30°C), 2500 ± 480 nM; on HsaGST M2-2 (setting [10]), 4900 nM; on HsaGST A3-3 [4], 660 nM; in the experiment with HsaGST P1-1 it was 3100 nM; in the experiment with HsaGST S1-1, 3300 nM. Also, the “Inhibition (%) of HsaGST A3-3” value on HsaGST A3-3 [3] (setting [8]) worked out at 98%. Also, the “Inhibition (%) of HsaGST M2-2” value at HsaGST M2-2 (setting [9]) is 85%. In addition, in the experiment with HsaGST P1-1, the “Inhibition (%) of HsaGST P1-1” value is on record as 44%. For the same compound, in the experiment with HsaGST S1-1, the “Inhibition (%) of HsaGST S1-1” value was 85%.

On to `O=C(O)c1cc(O)c2c(c1)[C@H]([C@H]1c3cc(C(=O)O)cc(O)c3C(=O)c3c(O[C@@H]4O[C@H](CO)[C@@H](O)[C@H](O)[C@H]4O)cccc31)c1cccc(O[C@@H]3O[C@H](CO)[C@@H](O)[C@H](O)[C@H]3O)c1C2=O` [Sennoside A], for which the inhibition at 10 µM on EcaGST A3-3 [1] (10 μM inhibitor, 1 mM GSH, 1 mM CDNB, sodium phosphate pH 6.5, 30°C, read-out: Inhibition (%) of EcaGST A3-3) was 100%; at HsaGST A3-3 [3] (setting [7]) it was 90%; on HsaGST M2-2 (10 μM inhibitor, 1 mM GSH, 1 mM CDNB, pH 6.5, 30°C, read-out: Inhibition (%) of HsaGST M2-2 (symbol)) it was below 30%. The half-inhibitory concentration (IC50) is 2800 ± 280 nM at EcaGST A3-3 [1] (setting [6]), 110 ± 8.2 nM at EcaGST A3-3 [2], 980 nM against HsaGST A3-3 [3] (setting [8]) and 39000 nM with HsaGST S1-1. Further, the “Hill coefficient, CDNB inhibition” value on EcaGST A3-3 [1] (dose-response curve, substrate CDNB, mean ± SD) is 2.2±0.41. Also, the “IC50 EcaGST A3-3, substrate Δ^5-AD” value on EcaGST A3-3 [2] (setting [11]) was “submicromolar range”. At EcaGST A3-3 [2] (dose-response curve, substrate Δ^5-AD, mean ± SD), the “Hill coefficient, Δ^5-AD inhibition” value was determined as 2.1±0.29. Also, the “Times more potent with Δ^5-AD as substrate than with CDNB” value on EcaGST A3-3 [2] (ratio of IC50 values CDNB vs Δ^5-AD, EcaGST A3-3) is given as “approximately 25 times”. The “Inhibition (%) of HsaGST P1-1” value in the experiment on HsaGST P1-1 is below 4%. Further, in the experiment on HsaGST S1-1, the “Inhibition (%) of HsaGST S1-1” value is 30%.

Take `OC[C@H]1O[C@H]([S-])[C@H](O)[C@@H](O)[C@@H]1O.[Au+]` [Aurothioglucose]: the “Inhibition (%) of EcaGST A3-3” value on EcaGST A3-3 [1] (setting [5]) is given as 78 ± 28%. Besides, the IC50 on EcaGST A3-3 [1] (setting [6]) was determined as 850 ± 120 nM; against HsaGST A3-3 [3] (setting [8]) it was 910 nM; at HsaGST M2-2 (setting [10]), 12000 nM. The “IC50 EcaGST A3-3, substrate Δ^5-AD” value at EcaGST A3-3 [2] (setting [11]) is recorded as “Anomalous curve”. The “Inhibition (%) of HsaGST A3-3” value at HsaGST A3-3 [3] (setting [8]) came out at 96%. Also, the “Inhibition (%) of HsaGST M2-2” value on HsaGST M2-2 (setting [9]) turned out to be 85%. Further, the “Inhibition (%) of HsaGST P1-1” value in the experiment with HsaGST P1-1 is listed as below 4%. In addition, the “Inhibition (%) of HsaGST S1-1” value in the experiment on HsaGST S1-1 is recorded as 24%.
